Tests used:
Test in all cases: relative viability (nuclei count vs DMSO), 5 days (fraction); higher = more cells survive
Kobe2602 + Phenformin = compound: C1=CC(=CC=C1NC(=S)NNC2=C(C=C(C=C2[N+](=O)[O-])C(F)(F)F)[N+](=O)[O-])F [Kobe2602] + N=C(N)NC(=N)NCCc1ccccc1 [Phenformin] (partner 250 µM)
How it was run: (§1)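 Relative viability equals treated-well nuclei counts divided by vehicle-well nuclei counts. Counts came from 4× images of lung cancer cell lines grown in 1536-well plates for 5 days after pin-tool dosing on the day after seeding. Dosing used one drug alone or a fixed anchor-drug dose plus five library-drug doses (not always all listed) in √10 steps, and values are medians of duplicate plates.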

[1] = compound: COc1cc2nccc(Oc3ccc(NC(=O)C4(C(=O)Nc5ccc(F)cc5)CC4)cc3)c2cc1OC [Cabozantinib] + CCNC(=O)c1noc(-c2cc(C(C)C)c(O)cc2O)c1-c1ccc(CN2CCOCC2)cc1 [Luminespib] (partner 0.01 µM)
How it was run: as §1

[2] = compound: COc1cc2nccc(Oc3ccc(NC(=O)C4(C(=O)Nc5ccc(F)cc5)CC4)cc3)c2cc1OC [Cabozantinib] + C[C@@H](Oc1cc(-c2cnn(C3CCNCC3)c2)cnc1N)c1c(Cl)ccc(F)c1Cl [Crizotinib] (partner 1 µM)
How it was run: as §1

Zosuquidar + Lapatinib = compound: O[C@@H](COc1cccc2ncccc12)CN1CCN([C@@H]2c3ccccc3[C@@H]3[C@H](c4ccccc42)C3(F)F)CC1 [Zosuquidar] + CS(=O)(=O)CCNCc1ccc(-c2ccc3ncnc(Nc4ccc(OCc5cccc(F)c5)c(Cl)c4)c3c2)o1 [Lapatinib] (partner 2 µM)
How it was run: as §1

Cell Line | relative viability (Kobe2602 + Phenformin; first compound 0.2 µM) | relative viability (Kobe2602 + Phenformin; first compound 0.6325 µM) | relative viability (Kobe2602 + Phenformin; first compound 2 µM) | relative viability (Kobe2602 + Phenformin; first compound 6.325 µM) | relative viability (Kobe2602 + Phenformin; first compound 20 µM) | relative viability ([1]; first compound 0.02 µM) | relative viability ([1]; first compound 0.06325 µM) | relative viability ([1]; first compound 0.2 µM) | relative viability ([1]; first compound 0.6325 µM) | relative viability ([1]; first compound 2 µM) | relative viability ([2]; first compound 0.02 µM) | relative viability ([2]; first compound 0.06325 µM) | relative viability ([2]; first compound 0.2 µM) | relative viability ([2]; first compound 0.6325 µM) | relative viability ([2]; first compound 2 µM) | relative viability (Zosuquidar + Lapatinib; first compound 0.01 µM) | relative viability (Zosuquidar + Lapatinib; first compound 0.03162 µM) | relative viability (Zosuquidar + Lapatinib; first compound 0.1 µM) | relative viability (Zosuquidar + Lapatinib; first compound 0.3162 µM) | relative viability (Zosuquidar + Lapatinib; first compound 1 µM)
201T | 0.463 | 0.449 | 0.425 | 0.394 | 0.405 | 1.12 | 1.08 | 1.04 | 1.06 | 1.03 | 1.04 | 1.02 | 0.988 | 0.956 | 0.976 | 0.996 | 1.05 | 0.881 | 1.02 | 0.997
A549 | 0.163 | 0.182 | 0.199 | 0.192 | 0.196 |  |  |  |  |  | 0.812 | 0.853 | 0.787 | 0.79 | 0.729 | 0.958 | 0.935 | 0.984 | 0.977 | 0.94
A-427 | 0.416 | 0.413 | 0.364 | 0.303 | 0.307 | 1.23 | 1.15 | 1.03 | 0.912 | 0.857 | 0.836 | 0.968 | 0.887 | 0.789 | 0.858 | 1.07 | 1.02 | 0.842 | 1.07 | 1.01
ABC-1 | 0.215 | 0.233 |  | 0.211 | 0.227 | 0.458 | 0.494 | 0.83 | 1.11 | 0.758 | 1.23 | 1.08 | 1.19 | 0.952 | 1.01 | 1.17 | 1.14 | 1.24 | 1.19 | 1.05
BEN | 0.264 | 0.295 | 0.302 | 0.246 | 0.25 | 0.3 | 0.414 | 0.326 | 0.352 | 0.257 | 1.12 | 1 | 0.868 | 0.895 | 0.767 | 0.79 | 0.718 | 0.594 | 0.825 | 0.745
CAL-12T | 0.586 | 0.597 | 0.579 | 0.538 | 0.449 | 0.832 | 0.574 | 0.37 | 0.581 | 1.37 | 0.724 | 0.753 | 0.634 | 0.611 | 0.429 | 0.716 | 0.84 |  | 0.768 | 0.819
COR-L23 | 0.469 | 0.453 | 0.427 | 0.463 | 0.422 | 0.733 | 0.823 | 0.723 | 0.675 | 0.658 | 0.73 | 0.791 | 0.716 | 0.621 | 0.544 | 0.953 | 0.934 | 0.968 | 1.15 | 1.34
COR-L 105 | 0.487 | 0.491 | 0.422 | 0.542 | 0.494 | 0.924 | 0.823 |  | 0.915 | 0.609 | 0.653 | 1.03 |  | 0.659 | 0.561 | 0.35 | 0.389 | 0.324 | 0.366 | 0.386
Calu-6 |  |  |  |  |  |  |  |  |  |  | 0.788 | 0.925 | 0.742 | 0.75 | 0.773 | 1.04 | 1.09 | 1.2 | 1.06 | 1.06
ChaGo-K-1 | 0.564 | 0.574 | 0.523 | 0.463 | 0.463 | 0.638 | 0.757 | 0.737 | 0.765 | 0.447 | 1.24 | 1.3 | 1.18 | 1.13 | 1.09 |  |  |  |  | 
EBC-1 |  |  |  |  |  |  |  |  |  |  | 0.194 | 0.173 | 0.182 | 0.198 | 0.213 | 0.215 | 0.234 | 0.206 | 0.198 | 0.226
EKVX | 0.27 | 0.237 | 0.22 | 0.233 | 0.248 | 0.859 | 1.02 | 0.918 | 0.751 | 0.893 | 1.25 | 1.07 | 0.856 | 0.907 | 1.03 | 0.227 | 0.254 | 0.106 | 0.34 | 0.214
EMC-BAC-2 | 0.575 | 0.591 | 0.508 | 0.538 | 0.553 | 1.23 | 1.15 | 1.24 | 1.1 | 1.09 | 0.841 | 0.779 | 0.781 | 0.817 | 0.827 | 0.852 | 0.925 | 0.816 | 0.986 | 0.954
EPLC-272H | 0.313 | 0.32 | 0.31 | 0.323 | 0.294 | 0.418 | 0.282 | 0.14 | 0.476 | 0.256 | 0.893 | 0.946 | 0.783 | 0.835 | 0.771 | 0.916 | 0.97 | 0.876 | 1.01 | 1
H3255 | 0.339 | 0.359 | 0.422 | 0.315 | 0.334 | 0.885 | 1.13 |  | 0.905 | 0.893 | 0.922 | 0.927 |  | 0.974 | 0.931 | 0.264 | 0.295 | 0.235 | 0.234 | 0.256
HARA | 0.468 | 0.506 | 0.465 | 0.467 | 0.478 | 0.722 | 0.421 | 0.615 | 0.92 | 0.548 | 1.22 | 1.17 | 1.09 | 0.957 | 1.09 | 0.806 | 0.69 | 0.676 | 0.932 | 0.879
HCC-15 | 0.482 | 0.494 | 0.443 | 0.43 | 0.363 | 0.374 | 0.361 | 0.515 | 0.394 | 0.214 | 0.877 | 0.956 | 0.828 | 0.873 | 0.811 | 0.827 | 0.861 | 0.764 | 0.881 | 0.976
HCC-44 | 0.207 | 0.21 | 0.249 | 0.239 | 0.322 |  | 1.15 | 1.08 | 1 | 1.02 | 0.855 | 0.85 | 0.841 | 0.834 | 0.85 | 0.948 | 1.08 | 1.05 | 0.967 | 1.06

— the supplement of paper PMC10307832
